Patent publication US20040110821A1, “GAL3 receptor antagonists for the treatment of affective disorders” (priority 2002, published 2004)

Experiments:
human GAL1 receptor = molecular target: T1, human GAL1 receptor (Homo sapiens, UniProt P47211); experiment: Radioligand binding at cloned human GAL1 receptor; settings: indolones, Table 4, read-out: Ki (nM) GalR 1
T1 construct: expressed in transfected cells
T1 sequence (P47211 1-349): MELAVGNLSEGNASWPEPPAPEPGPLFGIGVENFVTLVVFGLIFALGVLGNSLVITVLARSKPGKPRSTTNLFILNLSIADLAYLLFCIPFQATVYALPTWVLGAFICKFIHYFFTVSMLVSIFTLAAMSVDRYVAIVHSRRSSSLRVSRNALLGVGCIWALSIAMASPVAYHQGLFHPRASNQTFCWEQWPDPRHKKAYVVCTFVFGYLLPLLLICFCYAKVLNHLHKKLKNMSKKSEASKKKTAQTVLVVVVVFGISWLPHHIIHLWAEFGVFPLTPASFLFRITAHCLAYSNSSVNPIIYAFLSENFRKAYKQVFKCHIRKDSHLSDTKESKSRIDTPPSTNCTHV
Protocol: (§1) The present invention provides for a method of determining the binding affinity of a GAL3 antagonist, wherein the GAL3 antagonist is dissolved in a “suitable solvent”. A “suitable solvent” means one which permits the measurement of binding affinity of the GAL3 antagonist to the human GAL3 receptor at concentrations less than 1 μM, preferably less than 100 nM. Examples of solvents include, but are not limited to, DMSO, ethanol, N,N-dimethylacetamide, or water. For indolones, the preferred solvent is 3% DMSO (final concentration in the assay). For pyrimidines, the preferred solvent is 1% ethanol/0.09% polypuronic acid F-127 (final concentration in the assay). For any other type of compounds, the preferred solvent is the solvent which permits the measurement of binding affinity of a GAL3 antagonist at the lowest concentration. Once a suitable solvent is ascertained for the binding assay of the human GAL3 receptor, the same solvent is used in assays to determine the binding affinity for instance, at the GAL1 receptor.
(§2) The binding properties of the pyrimidines of the present invention were evaluated at the cloned human galanin receptors, GAL1, GAL2, and GAL3, using protocols described herein.
(§3) The binding properties of the indolones of the present invention were evaluated at the cloned human galanin receptors, GAL1, GAL2, and GAL3, using protocols described herein.
(§4) LM(tk-) cells were stably transfected with the human GAL1 or GAL3 receptor. CHO cells were stably transfected with the human GAL2 receptor.
(§5) cDNAs for the human and rat GAL1, and human and rat GAL3 receptors were transfected with a G-418 resistant gene into the mouse fibroblast LM(tk-) cell line by a calcium phosphate transfection method (Cullen, 1967). Stably transfected cells were selected with G-418. Human and rat GAL2 receptors were similarly transfected into CHO cells.
(§6) Membranes were harvested from stably transfected LM(tk-) cells. Adherent cells were washed twice in ice-cold phosphate buffered saline (138 mM NaCl, 8.1 mM Na2HPO4, 2.5 mM KCl, 1.2 mM KH2PO4, 0.9 mM CaCl2, 0.5 mM MgCl2, pH 7.4) and lysed by sonication in ice-cold sonication buffer (20 mM Tris-HCl, 5 mM EDTA, pH 7.7). Large particles and debris were cleared by low speed centrifugation (200×g, 5 min, 4° C.). Membranes were collected from the supernatant fraction by centrifugation (32,000×g, 18 min, 4° C.), washed with ice-cold hypotonic buffer, and collected again by centrifugation (32,000×g, 18 min, 4° C.). The final membrane pellet was resuspended by sonication into a small volume of ice-cold binding buffer (−1 ml for every 5 plates: 10 mM NaCl, 20 mM HEPES, 0.22 mM KH2PO4, 1.26 mM CaCl2, 0.81 mM MgSO4, pH 7.4). Protein concentration was measured by the Bradford method (Bradford, 1976) using Bio-Rad Reagent, with bovine serum albumin as a standard. Membranes were held on ice for up to one hour and used fresh, or flash frozen and stored in liquid nitrogen. Membranes were prepared similarly from CHO cells.
(§7) Galanin Receptors: Binding assays were performed according to the following published methods: human GAL3 (PCT International Publication No. WO 98/15570), human GAL1 (PCT International Publication No. WO 95/2260) human GAL2 (PCT International Publication No. WO 97/26853).
(§8) Binding data were analyzed using nonlinear regression and statistical techniques available in the GraphPAD Prism package (San Diego, Calif.). Enzymatic assay data were derived from a standard curve of reference compound data.

human GAL2 receptor = molecular target: T2, human GAL2 receptor (Homo sapiens, UniProt O43603); experiment: Radioligand binding at cloned human GAL2 receptor; settings: indolones, Table 4, read-out: Ki (nM) GalR 2
T2 construct: expressed in transfected cells
T2 sequence (O43603 1-387): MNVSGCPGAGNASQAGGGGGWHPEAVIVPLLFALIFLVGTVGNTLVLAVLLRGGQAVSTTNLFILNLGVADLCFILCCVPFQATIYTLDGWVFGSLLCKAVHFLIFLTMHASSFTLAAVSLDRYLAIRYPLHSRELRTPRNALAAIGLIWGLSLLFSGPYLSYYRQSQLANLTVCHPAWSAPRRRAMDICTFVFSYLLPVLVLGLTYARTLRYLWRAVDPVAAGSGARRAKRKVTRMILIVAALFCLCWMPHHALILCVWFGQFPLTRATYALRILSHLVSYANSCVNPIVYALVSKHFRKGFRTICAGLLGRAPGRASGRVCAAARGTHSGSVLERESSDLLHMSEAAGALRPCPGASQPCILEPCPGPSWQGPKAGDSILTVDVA
Protocol: as §1, §2, §3, §4, §5, §6, §7, §8

human 5HT1B receptor = molecular target: T3, human 5HT1B receptor (Homo sapiens, UniProt P28222); experiment: Radioligand binding at human 5HT1B receptor; settings: read-out: h5HT1B Ki
T3 construct: expressed in transfected cells
T3 sequence (P28222 whole entry): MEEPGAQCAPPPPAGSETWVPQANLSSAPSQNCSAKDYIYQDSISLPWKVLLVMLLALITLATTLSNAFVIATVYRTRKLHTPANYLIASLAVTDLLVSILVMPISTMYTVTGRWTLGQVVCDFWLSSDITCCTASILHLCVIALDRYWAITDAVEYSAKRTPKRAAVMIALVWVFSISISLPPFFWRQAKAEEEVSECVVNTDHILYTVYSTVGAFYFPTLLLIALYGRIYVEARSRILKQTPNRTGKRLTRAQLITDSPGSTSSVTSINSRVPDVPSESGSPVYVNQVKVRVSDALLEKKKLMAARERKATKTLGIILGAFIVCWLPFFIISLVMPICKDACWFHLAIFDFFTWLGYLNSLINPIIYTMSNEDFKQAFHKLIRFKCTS
Protocol: (§9) Human 5HT1B, 5HT1D, 5HT1E, 5HT1F, and 5HT7 ReceDtors: The cell lysates of LM(tk-) clonal cell line stably transfected with the genes encoding each of these 5HT receptor-subtypes were prepared as described above. Cell membranes were suspended in 50 mM Tris-HCl buffer (pH 7.4 at 37° C.) containing 10 mM MgCl2, 0.2 mM EDTA, 10 µM pargyline, and 0.1% ascorbate. […] Nonspecific binding was determined in the presence of 10 μM serotonin. The bound radioligand was separated by filtration through GF/B filters using a cell harvester.
as §8

human 5HT1E receptor = molecular target: T4, human 5HT1E receptor (Homo sapiens, UniProt P28566); experiment: Radioligand binding at human 5HT1E receptor; settings: read-out: h5HT1E Ki
T4 construct: expressed in transfected cells
T4 sequence (P28566 whole entry): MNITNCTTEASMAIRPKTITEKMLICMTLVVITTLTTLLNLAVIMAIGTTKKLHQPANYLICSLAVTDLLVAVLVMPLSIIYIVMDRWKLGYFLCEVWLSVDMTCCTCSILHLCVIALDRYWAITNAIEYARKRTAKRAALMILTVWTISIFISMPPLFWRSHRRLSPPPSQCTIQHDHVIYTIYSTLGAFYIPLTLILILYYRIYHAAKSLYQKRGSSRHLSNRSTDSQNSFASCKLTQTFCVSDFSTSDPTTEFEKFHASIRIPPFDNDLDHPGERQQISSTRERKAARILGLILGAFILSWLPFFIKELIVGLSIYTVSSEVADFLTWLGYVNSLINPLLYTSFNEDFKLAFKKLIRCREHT
Protocol: as §9, §8

With `O=C1C(=Nc2cccc(C(F)(F)F)c2)c2ccccc2N1c1ccccc1` [Example 92, 1-PHENYL-3-[[3-(TRIFLUOROMETHYL)PHENYL]IMINO]-1,3-DIHYDRO-2H-INDOL-2-ONE] the Ki (human GAL1 receptor) was > 10000 nM, the Ki (human GAL2 receptor) was > 10000 nM and the Ki (human 5HT1B receptor) was 11.3 µM. It also gave a Ki (human 5HT1E receptor) of 18.9 µM.
